Assay results taken from PubChem BioAssay AID248 (DTP/NCI, 2004).
Inconclusive results and toxic doses are left out. Rule as the data show it: active = T/C of 150% or more; inactive = T/C below 125%.

Tested on: L1210 leukemia ip in BDF1 mice, survival T/C
Test: NCI In Vivo Anticancer Drug Screen. Data for tumor model L1210 Leukemia (intraperitoneal) in B6D2F1 (BDF1) mice
Settings: endpoint: mean survival time, higher = longer survival
Procedure, shortened: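 Ratio derived from survival: compound-dosed mice over vehicle-dosed mice, all bearing a transplantable tumor.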

[1] = dose: 25.0 mg/kg/injection, schedule: Q01DX001 (ip), vehicle: Klucel (hydroxypropylcellulose) (HPC)
[2] = dose: 50.0 mg/kg/injection, schedule: Q01DX001 (ip), vehicle: Klucel (hydroxypropylcellulose) (HPC)
[3] = dose: 10.0 mg/kg/injection, schedule: Q01DX001 (ip), vehicle: saline
[4] = dose: 20.0 mg/kg/injection, schedule: Q01DX001 (ip), vehicle: saline
[5] = dose: 100.0 mg/kg/injection, schedule: Q04DX003 (ip), vehicle: saline with Tween-80
[6] = dose: 200.0 mg/kg/injection, schedule: Q04DX003 (ip), vehicle: saline with Tween-80
[7] = dose: 400.0 mg/kg/injection, schedule: Q04DX003 (ip), vehicle: saline with Tween-80
[8] = dose: 100.0 mg/kg/injection, schedule: Q04DX003 (ip), vehicle: saline
[9] = dose: 200.0 mg/kg/injection, schedule: Q04DX003 (ip), vehicle: saline
[10] = dose: 100.0 mg/kg/injection, schedule: Q04DX003 (ip), vehicle: Klucel (hydroxypropylcellulose) (HPC)

Measured: T/C

CCCCCCCCCCNCCS
inactive: dose: 4.0 mg/kg/injection, schedule: Q01DX015 (ip), vehicle: carboxymethylcellulose (CMC) 105 % of control | dose: 5.0 mg/kg/injection, schedule: Q01DX001 (ip), vehicle: carboxymethylcellulose (CMC) 109 % of control | dose: 5.0 mg/kg/injection, schedule: Q04DX003 (ip), vehicle: saline sonified 101 % of control | dose: 8.0 mg/kg/injection, schedule: Q01DX015 (ip), vehicle: carboxymethylcellulose (CMC) 103 % of control | dose: 10.0 mg/kg/injection, schedule: Q01DX001 (ip), vehicle: carboxymethylcellulose (CMC) 103 % of control | dose: 10.0 mg/kg/injection, schedule: Q04DX003 (ip), vehicle: saline sonified 101 % of control | dose: 16.0 mg/kg/injection, schedule: Q01DX015 (ip), vehicle: carboxymethylcellulose (CMC) 101 % of control | dose: 20.0 mg/kg/injection, schedule: Q04DX003 (ip), vehicle: saline sonified 101 % of control | dose: 32.0 mg/kg/injection, schedule: Q01DX015 (ip), vehicle: carboxymethylcellulose (CMC) 103 % of control

c1ccc(C2=NC(c3ccccc3)NC2c2ccccc2)cc1 (stereo unspecified)
inactive: [1] 95 % of control | [2] 98 % of control

NC1=NCC(CSS(=O)(=O)O)S1 (stereo unspecified)
inactive: dose: 5.0 mg/kg/injection, schedule: Q01DX009 (ip), vehicle: saline 95 % of control | [3] 101 % of control | dose: 10.0 mg/kg/injection, schedule: Q01DX009 (ip), vehicle: saline 89 % of control | dose: 10.0 mg/kg/injection, schedule: Q04DX003 (ip), vehicle: saline 96 % of control | [4] 93 % of control | dose: 20.0 mg/kg/injection, schedule: Q01DX009 (ip), vehicle: saline 106 % of control | dose: 20.0 mg/kg/injection, schedule: Q04DX003 (ip), vehicle: saline 105 % of control | dose: 29.0 mg/kg/injection, schedule: Q01DX009 (ip), vehicle: saline 90 % of control | dose: 40.0 mg/kg/injection, schedule: Q01DX001 (ip), vehicle: saline 95 % of control | dose: 40.0 mg/kg/injection, schedule: Q04DX003 (ip), vehicle: saline 97 % of control

O=C(CCCCCC(=O)NO)NO
inactive: dose: 100.0 mg/kg/injection, schedule: Q04DX002 (ip), vehicle: saline with Tween-80 93 % of control | dose: 100.0 mg/kg/injection, schedule: Q04DX002 (ip), vehicle: saline 100 % of control | dose: 200.0 mg/kg/injection, schedule: Q04DX002 (ip), vehicle: saline with Tween-80 97 % of control | dose: 200.0 mg/kg/injection, schedule: Q04DX002 (ip), vehicle: saline 93 % of control | dose: 400.0 mg/kg/injection, schedule: Q04DX002 (ip), vehicle: saline with Tween-80 97 % of control | dose: 400.0 mg/kg/injection, schedule: Q04DX002 (ip), vehicle: saline 93 % of control

CCCCCCCCCCCCCCCCCC[N+](C)(C)C
inactive: dose: 1.0 mg/kg/injection, schedule: Q01DX015 (ip), vehicle: saline 94 % of control | dose: 2.0 mg/kg/injection, schedule: Q01DX015 (ip), vehicle: saline 94 % of control | dose: 3.12 mg/kg/injection, schedule: Q01DX009 (ip), vehicle: saline 94 % of control | dose: 4.0 mg/kg/injection, schedule: Q01DX015 (ip), vehicle: saline 95 % of control | dose: 6.25 mg/kg/injection, schedule: Q01DX009 (ip), vehicle: saline 94 % of control | dose: 12.5 mg/kg/injection, schedule: Q04DX003 (ip), vehicle: saline 87 % of control

O=C(Nc1ccc(Cl)c(Cl)c1)Nc1ccc(Oc2ccc(Cl)cc2Cl)cc1S(=O)(=O)O
inactive: dose: 100.0 mg/kg/injection, schedule: Q04DX003 (ip), vehicle: alcohol 100 % of control | dose: 200.0 mg/kg/injection, schedule: Q04DX003 (ip), vehicle: alcohol 103 % of control

Cc1nc2cccc3ccc4c5ccccc5cc1c4c32
inactive: [5] 92 % of control | [6] 92 % of control | [7] 87 % of control

CCOC(=O)NC(C)(C)CN(C(=O)OCC)C(C)(C)CO
inactive: [8] 104 % of control | [9] 104 % of control

Cc1c[n+](=O)c(C)cn1[O-]
inactive: dose: 100.0 mg/kg/injection, schedule: Q01DX001 (ip), vehicle: saline 97 % of control | dose: 200.0 mg/kg/injection, schedule: Q01DX001 (ip), vehicle: saline 100 % of control | dose: 400.0 mg/kg/injection, schedule: Q01DX001 (ip), vehicle: saline 103 % of control

Clc1ccccc1C(=Nc1ccccc1)C(=Nc1ccccc1)c1ccccc1Cl
inactive: dose: 12.5 mg/kg/injection, schedule: Q01DX001 (ip), vehicle: Klucel (hydroxypropylcellulose) (HPC) 106 % of control | [1] 102 % of control | dose: 25.0 mg/kg/injection, schedule: Q04DX003 (ip), vehicle: Klucel (hydroxypropylcellulose) (HPC) 90 % of control | [2] 106 % of control | dose: 50.0 mg/kg/injection, schedule: Q04DX003 (ip), vehicle: Klucel (hydroxypropylcellulose) (HPC) 92 % of control | dose: 100.0 mg/kg/injection, schedule: Q01DX001 (ip), vehicle: Klucel (hydroxypropylcellulose) (HPC) 88 % of control | [10] 87 % of control | dose: 400.0 mg/kg/injection, schedule: Q01DX001 (ip), vehicle: Klucel (hydroxypropylcellulose) (HPC) 90 % of control

CCCCCCC(/C=C/C=C/c1ccccc1)=N\O
inactive: [10] 96 % of control | dose: 200.0 mg/kg/injection, schedule: Q01DX009 (ip), vehicle: Klucel (hydroxypropylcellulose) (HPC) 91 % of control | dose: 200.0 mg/kg/injection, schedule: Q04DX003 (ip), vehicle: Klucel (hydroxypropylcellulose) (HPC) 90 % of control | dose: 400.0 mg/kg/injection, schedule: Q01DX009 (ip), vehicle: Klucel (hydroxypropylcellulose) (HPC) 91 % of control | dose: 400.0 mg/kg/injection, schedule: Q04DX003 (ip), vehicle: Klucel (hydroxypropylcellulose) (HPC) 98 % of control

O=C(O)C1CCC(C(=O)O)CC1 (stereo unspecified)
inactive: dose: 50.0 mg/kg/injection, schedule: Q01DX001 (ip), vehicle: carboxymethylcellulose (CMC) 101 % of control | dose: 100.0 mg/kg/injection, schedule: Q01DX001 (ip), vehicle: carboxymethylcellulose (CMC) 88 % of control | dose: 400.0 mg/kg/injection, schedule: Q01DX001 (ip), vehicle: carboxymethylcellulose (CMC) 98 % of control

Cc1ccc2ccc3c4ccccc4ccc3[n+]2c1
inactive: [3] 102 % of control | [4] 98 % of control

Clc1ccc(CN2COc3c(ccc4cccnc34)C2)cc1Cl
inactive: dose: 100.0 mg/kg/injection, schedule: Q04DX003 (ip), vehicle: saline sonified 105 % of control | dose: 200.0 mg/kg/injection, schedule: Q04DX003 (ip), vehicle: saline sonified 94 % of control | dose: 400.0 mg/kg/injection, schedule: Q04DX003 (ip), vehicle: saline sonified 100 % of control

Cc1ccc(CN2C(=O)C=CC2=O)cc1
inactive: dose: 12.5 mg/kg/injection, schedule: Q04DX002 (ip), vehicle: Klucel (hydroxypropylcellulose) (HPC) 102 % of control | dose: 25.0 mg/kg/injection, schedule: Q04DX002 (ip), vehicle: Klucel (hydroxypropylcellulose) (HPC) 102 % of control

CCOC(=O)C(OCc1ccccc1)(C(=O)OCC)C(C)C
inactive: dose: 100.0 mg/kg/injection, schedule: Q01DX009 (ip), vehicle: saline 97 % of control | [8] 96 % of control | dose: 200.0 mg/kg/injection, schedule: Q01DX009 (ip), vehicle: saline 101 % of control | [9] 102 % of control | dose: 400.0 mg/kg/injection, schedule: Q01DX009 (ip), vehicle: saline 106 % of control | dose: 400.0 mg/kg/injection, schedule: Q04DX003 (ip), vehicle: saline 108 % of control

CCOC(=O)c1c(N)sc2c1CCCC2
inactive: dose: 100.0 mg/kg/injection, schedule: Q01DX009 (ip), vehicle: saline sonified 102 % of control | [5] 95 % of control | dose: 200.0 mg/kg/injection, schedule: Q01DX009 (ip), vehicle: saline sonified 89 % of control | [6] 103 % of control | dose: 400.0 mg/kg/injection, schedule: Q01DX009 (ip), vehicle: saline sonified 105 % of control | [7] 97 % of control

CCOC(=O)C(Br)(C(=O)OCC)C(c1ccccc1)c1ccccc1
inactive: dose: 100.0 mg/kg/injection, schedule: Q01DX009 (ip), vehicle: saline with Tween-80 98 % of control | dose: 200.0 mg/kg/injection, schedule: Q01DX009 (ip), vehicle: saline with Tween-80 96 % of control | dose: 400.0 mg/kg/injection, schedule: Q01DX009 (ip), vehicle: saline with Tween-80 93 % of control
